The values below come from patent publication US7018993B2, “Antiandrogenic agent” (Chugai Seiyaku Kabushiki Kaisha, priority 2000, dated 2006).

Data set [1] has as its target T1, human androgen receptor (Homo sapiens, UniProt P10275).
T1 construct: expressed in transfected cells; host or cells: HeLa cells
T1 sequence (P10275 1-920): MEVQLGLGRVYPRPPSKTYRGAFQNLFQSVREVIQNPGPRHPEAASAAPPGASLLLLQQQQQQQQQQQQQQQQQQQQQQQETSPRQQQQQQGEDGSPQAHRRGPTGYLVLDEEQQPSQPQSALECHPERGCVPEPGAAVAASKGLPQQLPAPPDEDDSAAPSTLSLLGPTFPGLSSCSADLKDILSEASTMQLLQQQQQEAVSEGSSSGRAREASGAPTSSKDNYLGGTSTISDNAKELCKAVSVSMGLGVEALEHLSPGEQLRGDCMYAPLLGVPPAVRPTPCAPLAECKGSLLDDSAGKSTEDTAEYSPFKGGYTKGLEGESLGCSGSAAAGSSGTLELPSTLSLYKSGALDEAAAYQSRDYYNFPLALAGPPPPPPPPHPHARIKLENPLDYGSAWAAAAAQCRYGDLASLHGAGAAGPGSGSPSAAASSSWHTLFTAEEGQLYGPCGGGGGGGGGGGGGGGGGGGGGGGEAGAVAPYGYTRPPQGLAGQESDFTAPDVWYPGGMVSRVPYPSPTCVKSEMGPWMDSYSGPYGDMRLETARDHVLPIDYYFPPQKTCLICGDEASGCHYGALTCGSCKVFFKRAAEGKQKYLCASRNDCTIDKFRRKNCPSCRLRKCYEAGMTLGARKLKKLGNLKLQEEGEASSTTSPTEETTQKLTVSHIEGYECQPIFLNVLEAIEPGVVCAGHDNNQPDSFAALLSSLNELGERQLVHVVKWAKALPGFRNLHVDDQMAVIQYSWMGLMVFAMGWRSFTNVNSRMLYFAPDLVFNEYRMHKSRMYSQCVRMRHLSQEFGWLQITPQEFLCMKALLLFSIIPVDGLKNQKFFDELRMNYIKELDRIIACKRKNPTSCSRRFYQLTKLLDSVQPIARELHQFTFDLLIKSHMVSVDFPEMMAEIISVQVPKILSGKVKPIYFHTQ
The data set can be described thus: Androgen receptor reporter gene assay for antagonistic effects (inhibition of DHT-induced transcriptional activity, HeLa cells). The class given is cell-based. As to the method: Twenty-four hours before transfection, 1.0×10^5 HeLa cells are cultured in a 12-well microplate containing phenol red-free DMEM/5% DCC-FBS. […] To effect this assay, reference may be made to J. Biol. Chem., vol. 270, p.
(§1) Twenty-four hours before transfection, 1.0×10^5 HeLa cells are cultured in a 12-well microplate containing phenol red-free DMEM/5% DCC-FBS.

The target of data set [2] is T1, human androgen receptor. Briefly: Androgen receptor reporter gene assay for agonistic effects (MMTV-Luc, HeLa cells). To be noted: 10 μmol/L. Type of data set: cell-based. As to the method: Twenty-four hours before transfection, 1.0×10^5 HeLa cells (purchased from Dainippon Pharmaceutical Co., Ltd.) are cultured in a 12-well microplate containing phenol red-free Dulbecco's Modified Eagle Medium (phenol red-free DMEM) supplemented with charcoal-treated FBS (DCC-FBS; 5%). […] To effect this assay, reference may be made to J. Biol. Chem., vol. 270, p.
as §1

For another data set, the target named is androgen receptor (Homo sapiens, UniProt P10275). As to conditions: 10 μmol/L; cited from earlier work.
For data set [3] the following is noted: prostate cancer patients undergoing treatment with flutamide; cited from earlier work.
Another data set has as its system prostate weight. As to conditions: castrated rats, continuous administration for two weeks; cited from earlier work.

At human androgen receptor [1], `CN(C)C(=O)CCCOc1cc(O)cc(CCC[C@@H]2C[C@H]3CC(=O)CC[C@]3(C)[C@H]3CC[C@]4(C)[C@@H](O)CC[C@H]4[C@H]23)c1` [Compound from Example 3, 17β-Hydroxy-7α-(3-(3-hydroxy-5-(3-(N,N-dimethylaminocarbonyl)propoxy)phenyl)propyl)-5α-androstan-3-one] came in with a 50% inhibitory concentration (IC50) of 392 nM.

For the compound `CC(C)(O)C(=O)Nc1ccc([N+](=O)[O-])c(C(F)(F)F)c1` [Hydroxyflutamide, hydroxyflutamide], the agonistic effects entry on human androgen receptor [2] is “observed to have agonistic effects”. The “Luciferase activity (Relative activity)” value at human androgen receptor [1] (1.0 μmol/L compound with 0.1 nmol/L DHT, 48 h, activity given by 0.1 nmol/L DHT set to 100) is reported as 29.0 (<50.0). Moreover, at androgen receptor, the “transcriptional activity of androgen receptor” value is “enhance the transcriptional activity”. The blood hydroxyflutamide levels result in data set [3] was “several”.

Turning to `CC(=O)O[C@]1(C(C)=O)CC[C@H]2[C@@H]3C=C(Cl)C4=CC(=O)CC[C@]4(C)[C@H]3CC[C@@]21C` [chlormadinone acetate], the prostate weight result in the data set on prostate weight is “increase in their prostate weight”.

Regarding `CC(=O)O[C@]1(C(C)=O)CC[C@H]2[C@@H]3C=C(Cl)C4=CC(=O)[C@@H]5C[C@@H]5[C@]4(C)[C@H]3CC[C@@]21C` [cyproterone acetate], the prostate weight entry in the data set with prostate weight is “increase in their prostate weight”.
